Source: publication PMC4552634, “A New Set of Chemical Starting Points with Plasmodium falciparum Transmission-Blocking Potential for Antimalarial Drug Discovery” (PLoS ONE, 2015)

System: P. falciparum stage V gametocytes
Test: microbe, parasite or virus in culture
Parameters: BacTiter-Glo ATP luminescence viability of purified stage V gametocytes in 384-well plates, per cent inhibition versus DMSO
Conditions: 48 h, 5 µM; inhibitor

Compound | % Inhibition [%]
CN(C)CCN1CCN(CCCN2c3ccccc3Sc3ccc(C(F)(F)F)cc32)CC1 [TCMDC-142257] | 92.65

Same assay, conditions: Plasmodium falciparum, 48 h, read-out: % Inhibition

Compound | inhibition at 5 µM [%]
COc1ccc2c(NN=Cc3c(OC)ccc4ccccc34)cc(C)nc2c1 [TCMDC-142236] | 103
COc1ccc2ccccc2c1C=NNc1ccnc2ccc(F)cc12 [TCMDC-142237] | -11.1
COc1ccc2ccccc2c1C=NNc1cc(C)nc2cc(C(F)(F)F)ccc12 [TCMDC-142238] | -35
COc1ccc2c(NN=C(C)c3ccccn3)cc(C)nc2c1 [TCMDC-142239] | 103
CCOC(=O)c1cnc2c(OC)cc(OC)c(Cl)c2c1Nc1ccccc1 [TCMDC-142240] | 44.8
CCOC(=O)c1cnc2c(OC)cc(OC)c(Cl)c2c1Nc1cccc(C)c1 [TCMDC-142241] | -99.9
CCOC(=O)c1cnc2c(OC)cc(OC)c(Cl)c2c1Nc1cccc(C)c1C [TCMDC-142242] | 64.1
CCCCc1ccc2[nH]cc(C(=O)OCC)c(=O)c2c1 [TCMDC-142243] | 33.5
CN(C(=O)c1ccc(Br)cc1)c1ccccc1[N+](=O)[O-] [TCMDC-142245] | -8
CCCCCCc1cc(OC)c(OC)cc1C(C)Nc1ccnc2cc(Cl)ccc12 (centres unmarked) [TCMDC-142247] | -55.2
CCCCCCN(CCCCCC)CC(O)c1c(OC)ccc2ccccc12 (centres unmarked) [TCMDC-142248] | -34.9
Cc1ccccc1C1=CCN(CCCN2c3ccccc3Sc3ccc(Cl)cc32)CC1 [TCMDC-142249] | 53.4
COc1ccccc1-c1nc2nc(N)nc(N)c2nc1-c1ccccc1OC [TCMDC-142250] | 16.7
O=C(NC1c2ccccc2Oc2ccccc21)c1ccccc1O [TCMDC-142251] | 3.63
CCCN(CCC)CCCOc1ccc(C(=O)c2c(-c3ccc(OCCCN(CCC)CCC)cc3)oc3ccc(Cl)cc23)cc1 [TCMDC-142256] | 105
Cc1ccc(C2(O)CC3CCC(C2)N3C)cc1 (centres unmarked) [TCMDC-142260] | 10.6
CC(C)OC(=O)c1ccccc1S(N)(=O)=O [TCMDC-142262] | -12.6
CCN(CC)CCCC(C)Nc1c(-c2ccc(Br)cc2)cnc2ccccc12 (centres unmarked) [TCMDC-142263] | 26
CCN(CC)CCCC(C)Nc1c(-c2ccc(C)cc2)cnc2ccccc12 (centres unmarked) [TCMDC-142264] | 25.6
CCN(CC)CCCC(C)Nc1c(-c2ccc(OC)cc2)cnc2ccccc12 (centres unmarked) [TCMDC-142265] | 36.6
Cc1ccc(O)cc1C[C@@H]1C(=O)CC[C@@]2(C)[C@H]1CC[C@]2(C)O [TCMDC-142266] | -40.3
c1ccc2c3c(ccc2c1)Sc1c(ccc2ccccc12)N3 [TCMDC-142267] | -92.1
CCCCN(CCCC)CC(O)c1cc(-c2ccc(Cl)cc2)nc2c(Cl)cc(Cl)cc12 (centres unmarked) [TCMDC-142268] | -20.8
Fc1ccc(C2N=C(SCCSC3=NC(c4ccc(F)cc4)C(c4ccc(F)cc4)N3)NC2c2ccc(F)cc2)cc1 (centres unmarked) [TCMDC-142269] | -7.65
C=CCN1Cc2c(O)cccc2C(c2ccc(O)c(O)c2)C1 (centres unmarked) [TCMDC-142270] | -127
COc1ccc(C2CNCc3c2cc(OC)c(OC)c3Cl)cc1 (centres unmarked) [TCMDC-142271] | 22.9

Compound | inhibition at 5 µM [%]
COc1cc2c(cc1OC)C(c1ccc(Br)cc1)CN(C)CC2 (centres unmarked) [TCMDC-142272] | 20.3
COc1ccc(CSC2CCCCC23NC(=S)NC3=S)cc1 (centres unmarked) [TCMDC-142273] | 5.66
CCCC(C(=O)OCCNC)(c1ccccc1)c1ccccc1 [TCMDC-142275] | 48.4
CC(C)NCc1cc(Nc2ccnc3cc(Cl)ccc23)ccc1O [TCMDC-142277] | -61.6
COc1ccc2nc3cc(Cl)ccc3c(Nc3ccc(O)c(CNC(C)C)c3)c2c1 [TCMDC-142278] | 57.9
CCCCN(CCCC)Cc1cc(Nc2ccnc3cc(Cl)ccc23)ccc1O [TCMDC-142279] | -8.89
COc1ccc(C=Cc2cc(N)c3ccccc3n2)cc1 [TCMDC-142280] | 97.9
Nc1cc(-c2ccc3ccccc3c2)nc2ccccc12 [TCMDC-142281] | 1.22
Nc1c2c(nc3ccc(Oc4ccc(Cl)cc4)cc13)CCCC2 [TCMDC-142282] | 92
CCN(CC)Cc1cc(NC(=O)c2ccccc2O)ccc1Oc1ccc(Cl)cc1 [TCMDC-142283] | -6.19
Nc1c2c(nc3ccc(C(=O)Nc4ccccc4)cc13)CCCC2 [TCMDC-142284] | 39.7
COc1ccc(C=Cc2cc(N)c3ccccc3n2)cc1Br [TCMDC-142285] | 39.4
Nc1c2c(nc3ccc(Oc4ccc(Br)cc4Br)cc13)CCCC2 [TCMDC-142286] | 91.6
Nc1c2c(nc3ccc(C(=O)Nc4ccc(Br)cc4)cc13)CCCC2 [TCMDC-142287] | 62.2
Nc1c2c(nc3ccccc13)C(=Cc1ccc(O)cc1)CCC2 [TCMDC-142288] | -4.93
CC1=C(C(=O)OCCOCc2ccccc2)C(c2ccccc2C(F)(F)F)C(C(=O)OCCOCc2ccccc2)=C(C)N1 [TCMDC-142290] | 61.1
Nc1c2c(nc3ccc(NC(=O)c4ccc([N+](=O)[O-])cc4)cc13)CCCC2 [TCMDC-142291] | 60.6
Nc1c2c(nc3ccc(C(=O)Nc4cc(I)c(O)c(I)c4)cc13)CCCC2 [TCMDC-142292] | -1.08
CC(C)(C)c1cc([N+](=O)[O-])cc(C(=O)Nc2ccccc2C(F)(F)F)c1O [TCMDC-142293] | -4.47
CCOc1cc(NCCSCc2nc[nH]c2C)nc2ccccc12 [TCMDC-142294] | 26.1
CON(CCCN(C)C)C(=N)N [TCMDC-142297] | 12.5
CC(C)(C)NCC(O)COc1ccc(Cl)cc1C1=NNC(=O)CC1 (centres unmarked) [TCMDC-142298] | 8.53
CC(C)c1cc(Oc2c(I)cc(CCN=C(N)N)cc2I)ccc1O [TCMDC-142299] | 38.1
CC(C)c1cc(Oc2c(I)cc(CCNCc3ccccc3)cc2I)ccc1O [TCMDC-142300] | -73.5
Cc1[nH]cnc1CSCCNC(N)=NCCCCCCCCN=C(N)NCCSCc1nc[nH]c1C [TCMDC-142301] | -5.19
Cc1[nH]cnc1CSCCN/C(=N\C#N)NCCCCCCCCN/C(=N/C#N)NCCSCc1nc[nH]c1C [TCMDC-142302] | 48.1

Compound | inhibition at 5 µM [%]
Cc1ccc(Cc2cnc(NCCSCc3ccc(CN4CCOCC4)o3)[nH]c2=O)cn1 [TCMDC-142303] | -5.99
Cc1ccc(Cc2cnc(NCCSCc3ccc(CN(C)C)s3)[nH]c2=O)cn1 [TCMDC-142304] | -3.6
CN=C(NO)NCCN(C)C [TCMDC-142305] | -1.82
Oc1ccc(Cc2cc(Oc3c(I)cc(CCc4ncc[nH]4)cc3I)ccc2O)cc1 [TCMDC-142306] | 59.2
CC(C)c1cc(Oc2c(I)cc(CCCc3ncc[nH]3)cc2I)ccc1O [TCMDC-142307] | -127
Oc1ccc(CCCc2cc(Oc3c(I)cc(CCc4ncc[nH]4)cc3I)ccc2O)cc1 [TCMDC-142308] | -67
Cc1cc(Br)cnc1CCCCN=C1NC(=O)CN1C [TCMDC-142309] | 5.26
O=c1c(NCCCN(Cc2ccc(F)cc2)c2ccccn2)c(NCc2ccncc2)c1=O [TCMDC-142310] | 91.6
O=c1c(NCCCN(Cc2ccc(F)cc2)c2ccccn2)c(NCc2cccnc2)c1=O [TCMDC-142311] | 48
[O-][s+]1nc(NCCCN(Cc2cccs2)c2ccccn2)c(NCc2ccccc2)n1 (centres unmarked) [TCMDC-142312] | 5.1
O=C(OCc1ccccn1)c1nc2ccccc2[nH]1 [TCMDC-142313] | 43.6
c1ccc(COc2ccnc(NCCCOc3cccc(CN4CCCCC4)c3)c2)cc1 [TCMDC-142314] | 40
c1cc(CN2CCCCC2)cc(OCCCNc2ccnc3ccccc23)c1 [TCMDC-142315] | 42
Cc1cc(Br)cnc1CCCCNc1cc(=O)c2ccccc2[nH]1 [TCMDC-142316] | -5.57
CCCCN(CCCC)C(=O)CC(O)c1cc2c(Cl)cc(Cl)cc2c2cc(C(F)(F)F)ccc12 (centres unmarked) [TCMDC-142317] | 14.8
CCCCN(CCCC)CCC(O)C(=Cc1ccc(Cl)cc1Cl)c1ccc(C(F)(F)F)cc1N (centres unmarked) [TCMDC-142318] | -17.1
Cc1ccccc1Nc1nc(NCc2ccccc2)nc2ccccc12 [TCMDC-142319] | 98.9
COc1cccc2c(Oc3ccccc3C)ccnc12 [TCMDC-142320] | -32.5
COc1cccc2c(Nc3ccccc3C)nc(Nc3ccccc3C)nc12 [TCMDC-142321] | 28.2
Cc1ccccc1Nc1nc(NCCc2ccccc2)nc2ccccc12 [TCMDC-142322] | 101
CCCC(=O)c1cnc2cc(O)ccc2c1Nc1ccccc1C [TCMDC-142323] | -12.6
Cc1ccccc1Nc1nc(Nc2ccccc2)c2ccccc2n1 [TCMDC-142324] | 28.6
CNc1nc(Nc2ccccc2C)nc2ccccc12 [TCMDC-142325] | 50.8
CCCNc1nc(Nc2ccccc2C)nc2ccccc12 [TCMDC-142326] | 78.9

Same assay, conditions: Plasmodium falciparum, 48 h; read-out: % Inhibition

Compound | inhibition at 5 µM [%]
CNCCc1c(O)ccc2ccccc12 [TCMDC-142244] | -11.4
CCCCCCC(C)(C)c1cc(O)c2c3c(c(=O)oc2c1)CCN(Cc1ccccc1)C3 [TCMDC-142252] | -7.75
CCCCCCC(C)(C)c1cc(O)c2c(c1)OC(C)(C)c1ccncc1-2 [TCMDC-142253] | 30.7
CCCCCCC(C)c1cc(O)c2c(c1)OC(C)(C)c1ccncc1-2 (centres unmarked) [TCMDC-142254] | 56.1
CCCCCc1cc(O)c2c(c1)OC(C)(C)c1ccncc1-2 [TCMDC-142255] | -24.7
CCCCCCC(CC)c1cc(O)c2c(c1)OC(C)(C)c1ccncc1-2 (centres unmarked) [TCMDC-142258] | -39.1
CCCCCCCc1cc(O)c2c(c1)OC(C)(C)c1ccncc1-2 [TCMDC-142259] | 6.2
CC1=CC(=O)[C@@H](O)[C@]2(C)[C@H]3[C@@]4(O)OC[C@@]35[C@@H](C[C@@H]12)OC(=O)C[C@H]5[C@@H](C)[C@H]4O [TCMDC-142261] | 50.1
CCOC(=O)CCCN1C(=O)CN=C(c2ccccc2)c2cc(Cl)ccc21 [TCMDC-142274] | -8.73
